# Data taken from the kinase profiling compilation of Christmann-Franck et al. (2016).
# Assays:
# Test in all cases: KINOMEscan competition binding
# Conditions in all cases: compound 10.0 µM
# [1] = test system: FLT3 (human), P36888 [K663Q]
# MAPKAPK5 (human) = MAPKAPK5 (human) (UniProt Q8IW41)
# MAP3K10 (human) = MAP3K10 (human) (UniProt Q02779)
# PRKAA2 (human) = PRKAA2 (human) (UniProt P54646)
# RAF1 (human) = RAF1 (human) (UniProt P04049)
# [2] = test system: PIK3CA (human), P42336 [H1047Y]
# TYRO3 (human) = TYRO3 (human) (UniProt Q06418)
# LCK (human) = LCK (human) (UniProt P06239)
# RIPK1 (human) = RIPK1 (human) (UniProt Q13546)
# [3] = test system: KIT (human), P10721 [V559D/V654A]
# PRKACB (human) = PRKACB (human) (UniProt P22694)
# MAP3K15 (human) = MAP3K15 (human) (UniProt Q6ZN16)
# Sequence of MAP3K15 (human) (Q6ZN16 whole entry, looked up): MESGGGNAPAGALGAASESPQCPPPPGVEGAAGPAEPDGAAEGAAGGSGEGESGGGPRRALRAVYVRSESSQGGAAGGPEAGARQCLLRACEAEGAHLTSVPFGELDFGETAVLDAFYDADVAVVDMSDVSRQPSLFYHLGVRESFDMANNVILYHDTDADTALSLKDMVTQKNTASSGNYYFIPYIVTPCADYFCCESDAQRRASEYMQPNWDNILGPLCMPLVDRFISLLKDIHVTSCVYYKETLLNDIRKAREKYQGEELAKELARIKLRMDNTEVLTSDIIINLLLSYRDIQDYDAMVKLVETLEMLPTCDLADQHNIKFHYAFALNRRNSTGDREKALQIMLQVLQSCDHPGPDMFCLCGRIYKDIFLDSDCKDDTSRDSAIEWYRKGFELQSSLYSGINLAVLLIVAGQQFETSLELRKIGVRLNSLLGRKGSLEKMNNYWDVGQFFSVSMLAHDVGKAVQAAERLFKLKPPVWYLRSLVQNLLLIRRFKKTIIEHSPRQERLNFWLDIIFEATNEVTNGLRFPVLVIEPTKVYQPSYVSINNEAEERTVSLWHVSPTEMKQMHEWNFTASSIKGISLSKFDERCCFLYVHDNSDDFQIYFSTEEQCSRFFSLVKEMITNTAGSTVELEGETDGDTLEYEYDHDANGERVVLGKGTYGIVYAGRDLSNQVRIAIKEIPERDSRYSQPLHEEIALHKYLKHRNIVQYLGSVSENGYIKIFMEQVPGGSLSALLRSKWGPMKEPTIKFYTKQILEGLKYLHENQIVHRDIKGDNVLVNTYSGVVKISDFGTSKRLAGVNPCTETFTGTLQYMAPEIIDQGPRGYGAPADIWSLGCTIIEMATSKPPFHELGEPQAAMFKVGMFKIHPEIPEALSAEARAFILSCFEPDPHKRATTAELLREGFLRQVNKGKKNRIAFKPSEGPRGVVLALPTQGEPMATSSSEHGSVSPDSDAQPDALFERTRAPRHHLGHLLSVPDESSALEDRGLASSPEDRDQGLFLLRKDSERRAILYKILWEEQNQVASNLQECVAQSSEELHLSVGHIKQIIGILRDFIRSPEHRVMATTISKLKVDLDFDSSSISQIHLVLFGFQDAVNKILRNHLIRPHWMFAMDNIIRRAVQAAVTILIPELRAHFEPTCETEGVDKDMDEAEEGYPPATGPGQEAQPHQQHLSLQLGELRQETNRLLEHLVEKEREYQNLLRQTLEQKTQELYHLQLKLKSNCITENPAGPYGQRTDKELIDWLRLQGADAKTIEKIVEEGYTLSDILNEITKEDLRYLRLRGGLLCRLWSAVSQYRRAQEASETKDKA
# MYLK2 (human) = MYLK2 (human) (UniProt Q9H1R3)
# OXSR1 (human) = OXSR1 (human) (UniProt O95747)
# CSNK1G2 (human) = CSNK1G2 (human) (UniProt P78368)
# Sequence of CSNK1G2 (human) (P78368 whole entry, looked up): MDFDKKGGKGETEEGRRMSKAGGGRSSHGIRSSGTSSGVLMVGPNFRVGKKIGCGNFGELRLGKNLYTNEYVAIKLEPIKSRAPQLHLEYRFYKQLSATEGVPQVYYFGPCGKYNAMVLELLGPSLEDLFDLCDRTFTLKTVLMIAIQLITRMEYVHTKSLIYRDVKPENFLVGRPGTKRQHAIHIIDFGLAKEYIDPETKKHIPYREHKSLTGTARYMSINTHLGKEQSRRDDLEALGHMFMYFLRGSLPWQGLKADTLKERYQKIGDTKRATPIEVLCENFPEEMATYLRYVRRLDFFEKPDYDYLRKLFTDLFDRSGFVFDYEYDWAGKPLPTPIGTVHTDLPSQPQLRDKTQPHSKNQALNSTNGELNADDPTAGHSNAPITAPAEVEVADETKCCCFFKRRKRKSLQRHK
# MAPKAPK2 (human) = MAPKAPK2 (human) (UniProt P49137)
# [4] = test system: ABL1 (human), P00519 [T315I]
# CAMK1G (human) = CAMK1G (human) (UniProt Q96NX5)
# Sequence of CAMK1G (human) (Q96NX5 whole entry, looked up): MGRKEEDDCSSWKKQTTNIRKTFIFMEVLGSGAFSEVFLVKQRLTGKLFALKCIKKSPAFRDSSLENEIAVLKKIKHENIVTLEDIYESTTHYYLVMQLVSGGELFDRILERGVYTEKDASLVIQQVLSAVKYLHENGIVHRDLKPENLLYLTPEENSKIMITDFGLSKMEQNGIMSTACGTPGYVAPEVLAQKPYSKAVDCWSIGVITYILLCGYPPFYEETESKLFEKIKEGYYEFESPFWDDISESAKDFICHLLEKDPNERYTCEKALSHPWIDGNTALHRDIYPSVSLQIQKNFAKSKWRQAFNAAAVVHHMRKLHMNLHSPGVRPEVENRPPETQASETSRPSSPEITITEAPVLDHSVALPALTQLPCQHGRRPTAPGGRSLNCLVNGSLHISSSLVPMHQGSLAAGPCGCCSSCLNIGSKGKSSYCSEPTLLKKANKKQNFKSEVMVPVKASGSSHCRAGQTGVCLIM
# MAK (human) = MAK (human) (UniProt P20794)
# [5] = test system: KIT (human), P10721 [V559D]
# SRPK2 (human) = SRPK2 (human) (UniProt P78362)
# ROCK1 (human) = ROCK1 (human) (UniProt Q13464)
# SIK1 (human) = SIK1 (human) (UniProt P57059)
# CSNK1E (human) = CSNK1E (human) (UniProt P49674)
# MARK2 (human) = MARK2 (human) (UniProt Q7KZI7)
# CAMK2D (human) = CAMK2D (human) (UniProt Q13557)
# SRPK3 (human) = SRPK3 (human) (UniProt Q9UPE1)
# PIK3C2G (human) = PIK3C2G (human) (UniProt O75747)
# [6] = test system: FLT3 (human), P36888 [D835H]
# FGR (human) = FGR (human) (UniProt P09769)
# NIM1 (human) = NIM1 (human) (UniProt Q8IY84)
# Sequence of NIM1 (human) (Q8IY84 whole entry, looked up): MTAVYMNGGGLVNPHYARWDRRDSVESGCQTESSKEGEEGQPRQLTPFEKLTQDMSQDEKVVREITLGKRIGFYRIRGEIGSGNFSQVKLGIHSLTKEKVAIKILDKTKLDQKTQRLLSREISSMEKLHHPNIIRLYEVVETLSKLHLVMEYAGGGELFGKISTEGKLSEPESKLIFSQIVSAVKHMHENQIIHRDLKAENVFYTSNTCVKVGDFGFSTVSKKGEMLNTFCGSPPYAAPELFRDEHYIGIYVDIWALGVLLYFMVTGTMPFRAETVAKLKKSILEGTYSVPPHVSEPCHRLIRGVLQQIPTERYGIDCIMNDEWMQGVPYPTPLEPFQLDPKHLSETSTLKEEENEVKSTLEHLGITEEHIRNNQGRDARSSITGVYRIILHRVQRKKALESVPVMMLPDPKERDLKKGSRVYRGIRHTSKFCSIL
# STK33 (human) = STK33 (human) (UniProt Q9BYT3)
# INSRR (human) = INSRR (human) (UniProt P14616)
# NLK (human) = NLK (human) (UniProt Q9UBE8)
# Sequence of NLK (human) (Q9UBE8 whole entry, looked up): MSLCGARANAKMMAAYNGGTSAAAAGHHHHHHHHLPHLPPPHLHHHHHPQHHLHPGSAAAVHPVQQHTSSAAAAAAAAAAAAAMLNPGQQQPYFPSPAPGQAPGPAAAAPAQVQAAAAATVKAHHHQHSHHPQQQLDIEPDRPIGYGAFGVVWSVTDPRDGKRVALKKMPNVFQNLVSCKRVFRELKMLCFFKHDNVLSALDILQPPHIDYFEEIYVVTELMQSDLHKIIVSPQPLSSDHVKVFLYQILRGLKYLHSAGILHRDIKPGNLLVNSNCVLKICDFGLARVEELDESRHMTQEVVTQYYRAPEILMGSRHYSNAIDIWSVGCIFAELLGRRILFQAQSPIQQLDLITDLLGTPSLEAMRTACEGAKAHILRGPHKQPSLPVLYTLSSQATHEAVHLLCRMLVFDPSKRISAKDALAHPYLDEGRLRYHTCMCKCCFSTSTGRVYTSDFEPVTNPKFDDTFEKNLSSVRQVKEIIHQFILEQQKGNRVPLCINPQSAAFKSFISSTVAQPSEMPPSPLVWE
# CDK5 (human) = CDK5 (human) (UniProt Q00535)
# Sequence of CDK5 (human) (Q00535 whole entry, looked up): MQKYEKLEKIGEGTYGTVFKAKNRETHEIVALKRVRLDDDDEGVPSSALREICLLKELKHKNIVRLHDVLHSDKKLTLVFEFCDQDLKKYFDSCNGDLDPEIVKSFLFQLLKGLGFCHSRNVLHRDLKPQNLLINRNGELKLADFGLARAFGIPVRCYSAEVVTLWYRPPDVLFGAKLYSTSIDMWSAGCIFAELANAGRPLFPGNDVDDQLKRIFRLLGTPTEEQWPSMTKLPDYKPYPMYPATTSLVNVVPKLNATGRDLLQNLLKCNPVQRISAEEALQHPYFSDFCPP
# CDKL5 (human) = CDKL5 (human) (UniProt O76039)
# PRKG1 (human) = PRKG1 (human) (UniProt Q13976)
# Sequence of PRKG1 (human) (Q13976 whole entry, looked up): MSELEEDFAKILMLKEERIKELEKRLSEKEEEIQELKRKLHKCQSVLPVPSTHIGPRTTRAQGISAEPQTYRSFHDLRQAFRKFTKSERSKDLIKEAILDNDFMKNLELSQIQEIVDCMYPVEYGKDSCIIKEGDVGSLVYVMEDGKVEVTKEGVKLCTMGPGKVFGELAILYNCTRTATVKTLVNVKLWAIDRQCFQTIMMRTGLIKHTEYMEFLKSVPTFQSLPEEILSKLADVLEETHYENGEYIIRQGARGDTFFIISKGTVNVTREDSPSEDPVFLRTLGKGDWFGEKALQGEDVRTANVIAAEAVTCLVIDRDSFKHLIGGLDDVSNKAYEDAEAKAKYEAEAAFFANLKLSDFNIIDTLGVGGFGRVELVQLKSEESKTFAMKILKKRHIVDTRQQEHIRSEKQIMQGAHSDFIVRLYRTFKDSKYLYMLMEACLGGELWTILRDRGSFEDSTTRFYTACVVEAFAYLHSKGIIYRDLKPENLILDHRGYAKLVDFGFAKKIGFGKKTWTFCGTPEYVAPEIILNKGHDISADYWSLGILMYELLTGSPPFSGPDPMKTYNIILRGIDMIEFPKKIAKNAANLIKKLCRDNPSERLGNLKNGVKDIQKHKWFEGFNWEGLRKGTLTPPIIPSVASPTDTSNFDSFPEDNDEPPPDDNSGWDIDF
# CIT (human) = CIT (human) (UniProt O14578)
# ACVR1B (human) = ACVR1B (human) (UniProt P36896)
# ICK (human) = ICK (human) (UniProt Q9UPZ9)
# Sequence of ICK (human) (Q9UPZ9 whole entry, looked up): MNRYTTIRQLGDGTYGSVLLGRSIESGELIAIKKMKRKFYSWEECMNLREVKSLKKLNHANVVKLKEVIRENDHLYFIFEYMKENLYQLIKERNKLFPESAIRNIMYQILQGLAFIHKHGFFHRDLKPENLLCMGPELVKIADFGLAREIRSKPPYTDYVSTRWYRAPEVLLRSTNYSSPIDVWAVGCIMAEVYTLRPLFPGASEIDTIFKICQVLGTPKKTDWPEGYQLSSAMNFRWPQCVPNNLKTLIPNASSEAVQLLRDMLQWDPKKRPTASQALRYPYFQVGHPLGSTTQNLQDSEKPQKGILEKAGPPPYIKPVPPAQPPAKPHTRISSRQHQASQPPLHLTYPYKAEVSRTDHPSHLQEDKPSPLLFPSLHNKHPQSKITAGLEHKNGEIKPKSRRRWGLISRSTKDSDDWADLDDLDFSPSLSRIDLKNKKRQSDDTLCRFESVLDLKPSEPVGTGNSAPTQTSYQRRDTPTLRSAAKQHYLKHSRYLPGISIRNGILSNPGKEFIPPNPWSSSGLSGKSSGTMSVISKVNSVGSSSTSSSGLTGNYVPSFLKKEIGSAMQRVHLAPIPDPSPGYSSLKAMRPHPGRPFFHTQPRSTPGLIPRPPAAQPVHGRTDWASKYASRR
# PHKG2 (human) = PHKG2 (human) (UniProt P15735)
smiles,measurement,setting,value
COc1ccc(CNC(=O)Nc2ncc([N+](=O)[O-])s2)cc1,"kinase still bound, per cent of control",[1],70%
same,"kinase still bound, per cent of control",MAPKAPK5 (human),100%
same,"kinase still bound, per cent of control",MAP3K10 (human),87%
same,"kinase still bound, per cent of control",PRKAA2 (human),96%
same,"kinase still bound, per cent of control",RAF1 (human),63%
same,"kinase still bound, per cent of control",[2],100%
same,"kinase still bound, per cent of control",TYRO3 (human),93%
same,"kinase still bound, per cent of control",LCK (human),100%
same,"kinase still bound, per cent of control",RIPK1 (human),100%
same,"kinase still bound, per cent of control",[3],88%
same,"kinase still bound, per cent of control",PRKACB (human),98%
same,"kinase still bound, per cent of control",MAP3K15 (human),100%
same,"kinase still bound, per cent of control",MYLK2 (human),93%
same,"kinase still bound, per cent of control",OXSR1 (human),100%
same,"kinase still bound, per cent of control",CSNK1G2 (human),82%
same,"kinase still bound, per cent of control",MAPKAPK2 (human),94%
same,"kinase still bound, per cent of control",[4],100%
same,"kinase still bound, per cent of control",CAMK1G (human),100%
same,"kinase still bound, per cent of control",MAK (human),94%
same,"kinase still bound, per cent of control",[5],3.6%
same,"kinase still bound, per cent of control",SRPK2 (human),81%
same,"kinase still bound, per cent of control",ROCK1 (human),61%
same,"kinase still bound, per cent of control",SIK1 (human),93%
same,"kinase still bound, per cent of control",CSNK1E (human),87%
same,"kinase still bound, per cent of control",MARK2 (human),100%
same,"kinase still bound, per cent of control",CAMK2D (human),100%
same,"kinase still bound, per cent of control",SRPK3 (human),100%
same,"kinase still bound, per cent of control",PIK3C2G (human),100%
same,"kinase still bound, per cent of control",[6],99%
same,"kinase still bound, per cent of control",FGR (human),100%
same,"kinase still bound, per cent of control",NIM1 (human),100%
same,"kinase still bound, per cent of control",STK33 (human),75%
same,"kinase still bound, per cent of control",INSRR (human),93%
same,"kinase still bound, per cent of control",NLK (human),72%
same,"kinase still bound, per cent of control",CDK5 (human),72%
same,"kinase still bound, per cent of control",CDKL5 (human),100%
same,"kinase still bound, per cent of control",PRKG1 (human),97%
same,"kinase still bound, per cent of control",CIT (human),89%
same,"kinase still bound, per cent of control",ACVR1B (human),86%
same,"kinase still bound, per cent of control",ICK (human),87%
Cc1cnc(-c2cnc(NCCNc3ccc(C#N)cn3)nc2-c2ccc(Cl)cc2Cl)[nH]1,"kinase still bound, per cent of control",[1],78%
same,"kinase still bound, per cent of control",MAPKAPK5 (human),96%
same,"kinase still bound, per cent of control",MAP3K10 (human),76%
same,"kinase still bound, per cent of control",PRKAA2 (human),56%
same,"kinase still bound, per cent of control",RAF1 (human),100%
same,"kinase still bound, per cent of control",[2],69%
same,"kinase still bound, per cent of control",TYRO3 (human),100%
same,"kinase still bound, per cent of control",LCK (human),100%
same,"kinase still bound, per cent of control",RIPK1 (human),100%
same,"kinase still bound, per cent of control",[3],86%
same,"kinase still bound, per cent of control",PRKACB (human),100%
same,"kinase still bound, per cent of control",MAP3K15 (human),100%
same,"kinase still bound, per cent of control",MYLK2 (human),97%
same,"kinase still bound, per cent of control",OXSR1 (human),70%
same,"kinase still bound, per cent of control",CSNK1G2 (human),59%
same,"kinase still bound, per cent of control",MAPKAPK2 (human),100%
same,"kinase still bound, per cent of control",[4],100%
same,"kinase still bound, per cent of control",CAMK1G (human),100%
same,"kinase still bound, per cent of control",MAK (human),80%
same,"kinase still bound, per cent of control",[5],100%
same,"kinase still bound, per cent of control",SRPK2 (human),100%
same,"kinase still bound, per cent of control",ROCK1 (human),85%
same,"kinase still bound, per cent of control",SIK1 (human),100%
same,"kinase still bound, per cent of control",CSNK1E (human),76%
same,"kinase still bound, per cent of control",PHKG2 (human),100%
same,"kinase still bound, per cent of control",MARK2 (human),100%
same,"kinase still bound, per cent of control",CAMK2D (human),100%
same,"kinase still bound, per cent of control",SRPK3 (human),100%
same,"kinase still bound, per cent of control",PIK3C2G (human),100%
same,"kinase still bound, per cent of control",[6],74%
same,"kinase still bound, per cent of control",FGR (human),100%
same,"kinase still bound, per cent of control",NIM1 (human),100%
same,"kinase still bound, per cent of control",STK33 (human),100%
same,"kinase still bound, per cent of control",INSRR (human),100%
same,"kinase still bound, per cent of control",NLK (human),86%
same,"kinase still bound, per cent of control",CDK5 (human),67%
same,"kinase still bound, per cent of control",CDKL5 (human),100%
same,"kinase still bound, per cent of control",PRKG1 (human),100%
same,"kinase still bound, per cent of control",CIT (human),100%
same,"kinase still bound, per cent of control",ACVR1B (human),100%
same,"kinase still bound, per cent of control",ICK (human),39%
Cn1cc(C2=C(c3ccc(Cl)cc3Cl)C(=O)NC2=O)c2ccccc21,"kinase still bound, per cent of control",[1],62%
same,"kinase still bound, per cent of control",MAPKAPK5 (human),100%
same,"kinase still bound, per cent of control",MAP3K10 (human),100%
same,"kinase still bound, per cent of control",PRKAA2 (human),52%
same,"kinase still bound, per cent of control",RAF1 (human),91%
same,"kinase still bound, per cent of control",[2],100%
same,"kinase still bound, per cent of control",TYRO3 (human),100%
same,"kinase still bound, per cent of control",LCK (human),96%
same,"kinase still bound, per cent of control",RIPK1 (human),100%
same,"kinase still bound, per cent of control",[3],83%
same,"kinase still bound, per cent of control",PRKACB (human),100%
same,"kinase still bound, per cent of control",MAP3K15 (human),100%
same,"kinase still bound, per cent of control",MYLK2 (human),100%
same,"kinase still bound, per cent of control",OXSR1 (human),100%
same,"kinase still bound, per cent of control",CSNK1G2 (human),100%
same,"kinase still bound, per cent of control",MAPKAPK2 (human),100%
same,"kinase still bound, per cent of control",[4],80%
same,"kinase still bound, per cent of control",CAMK1G (human),70%
same,"kinase still bound, per cent of control",MAK (human),20%
same,"kinase still bound, per cent of control",[5],87%
same,"kinase still bound, per cent of control",SRPK2 (human),83%
same,"kinase still bound, per cent of control",ROCK1 (human),68%
same,"kinase still bound, per cent of control",SIK1 (human),90%
same,"kinase still bound, per cent of control",CSNK1E (human),49%
same,"kinase still bound, per cent of control",PHKG2 (human),80%
same,"kinase still bound, per cent of control",MARK2 (human),78%
same,"kinase still bound, per cent of control",CAMK2D (human),56%
same,"kinase still bound, per cent of control",SRPK3 (human),100%
same,"kinase still bound, per cent of control",PIK3C2G (human),94%
same,"kinase still bound, per cent of control",[6],32%
same,"kinase still bound, per cent of control",FGR (human),100%
same,"kinase still bound, per cent of control",NIM1 (human),100%
same,"kinase still bound, per cent of control",STK33 (human),100%
same,"kinase still bound, per cent of control",INSRR (human),72%
same,"kinase still bound, per cent of control",NLK (human),92%
same,"kinase still bound, per cent of control",CDK5 (human),47%
same,"kinase still bound, per cent of control",CDKL5 (human),100%
same,"kinase still bound, per cent of control",PRKG1 (human),61%
same,"kinase still bound, per cent of control",CIT (human),85%
same,"kinase still bound, per cent of control",ACVR1B (human),89%
same,"kinase still bound, per cent of control",ICK (human),12%
